Values belong to the compound of their own block, whether it stands above or below them.
Assays:
[1] = Prodrug release in mouse assessed as unbound brain to plasma concentration of ketoprofen at 30 mg/kg, po; type: ADME, organism-based
[2] = molecular target: Procathepsin L (Homo sapiens, UniProt P07711); experiment: Inhibition of human cathepsin L
[3] = Inhibition of Toxoplasma gondii cathepsin L
[4] = Ratio of AUC in Brain to plasma in mouse at 10 mg/kg, po; type: ADME, organism-based; settings: brain and plasma, read-out: Ratio AUC
[5] = Efflux ratio of apparent permeability across basolateral to apical side over apical to basolateral side in MDCK-MDR1 cells; type: ADME, cell-based, Canis lupus familiaris; settings: dog
[6] = Apparent permeability in MDCKII-MDR1 cells; type: ADME, cell-based, Canis lupus familiaris; settings: dog, MDCK-MDR1
[7] = Unbound brain-to-plasma concentration ratio in mouse at 30 mg/kg, po; type: ADME, organism-based; settings: brain and plasma, read-out: K(p,uu,brain)
[8] = Prodrug release in mouse assessed as nipecotic-acid concentration in brain at 15 mg/kg, iv after 30 mins; type: ADME, organism-based; settings: in vivo, 0.5 h
[9] = AUC in mouse brain at 48 mmol/kg, iv after 25 mins; type: ADME, organism-based; set-up: time 25 min, dose 48 mmol/Kg, route iv; settings: in vivo
[10] = Cmax in mouse brain at 48 mmol/kg, iv after 25 mins; type: ADME, organism-based; set-up: dose 48 mmol/Kg, time 25 min, route iv
[11] = Prodrug release in mouse brain assessed as AUC of ibuprofen after 60 mins; type: ADME, tissue-based; set-up: time 60 min; settings: in vivo, 1 h
[12] = Prodrug release in mouse brain assessed as Cmax of ibuprofen after 60 mins; type: ADME, tissue-based; set-up: time 60 min; settings: in vivo, 1 h

Sequence of Procathepsin L (P07711 whole entry): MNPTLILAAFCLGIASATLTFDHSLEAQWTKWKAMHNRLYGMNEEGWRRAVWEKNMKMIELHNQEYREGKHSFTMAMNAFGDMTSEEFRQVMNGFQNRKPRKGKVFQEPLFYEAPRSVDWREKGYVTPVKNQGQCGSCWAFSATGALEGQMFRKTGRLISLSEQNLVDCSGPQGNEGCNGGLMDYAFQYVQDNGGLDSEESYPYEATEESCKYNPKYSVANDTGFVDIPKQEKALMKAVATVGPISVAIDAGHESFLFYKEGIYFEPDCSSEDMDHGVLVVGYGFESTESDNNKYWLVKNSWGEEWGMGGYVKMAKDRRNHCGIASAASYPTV

SMILES: C[C@H](C(=O)Nc1cccc(C[C@@H](N)C(=O)O)c1)c1cccc(C(=O)c2ccccc2)c1
K(p,uu,brain) [1]: 0.13

SMILES: CC(C)CCN(c1nc(C#N)nc(N2CCOCC2)n1)C(C)c1ccc(F)cc1 (centres undefined)
IC50 [2]: 23 nM | IC50 [3]: 92 nM | Kp [4]: 0.52 | efflux ratio [5]: 0.223

SMILES: N[C@@H](COC(=O)C1CCCNC1)C(=O)O (some centres undefined)
Drug metabolism [8]: 450 nmol/g

SMILES: CC(C)Cc1ccc(C(C)C(=O)O)cc1 (centres undefined) [IBUPROFEN]
AUC [9]: 1860 µg·min/g | Cmax [10]: 10.7 µg/g

SMILES: CC(c1cccc(O)c1O)N(C)C.Cl (centres undefined)
Papp [6]: 23.9 ×10⁻⁶ cm/s

SMILES: CC(C)Cc1ccc(C(C)C(=O)O[C@@H](CN(C)C)[C@H]2OC(=O)C(O)=C2O)cc1 (some centres undefined)
AUC [11]: 5870 µg·min/g | Cmax [12]: 52.6 µg/g

SMILES: C[C@H](C(=O)Nc1ccc(C[C@@H](N)C(=O)O)cc1)c1cccc(C(=O)c2ccccc2)c1
K(p,uu,brain) [1]: 0.35

Further lines, with some results ahead:

Papp [6]: 26.3 ×10⁻⁶ cm/s
SMILES: CC(c1cc(O)ccc1O)N(C)C.Cl (centres undefined)

Kp uu [7]: 0.01
SMILES: CC(C(=O)O)c1cccc(C(=O)c2ccccc2)c1 (centres undefined) [KETOPROFEN]

Papp [6]: 1.13 ×10⁻⁶ cm/s
SMILES: CC(c1ccc(O)c(O)c1)N(C)C.Cl (centres undefined)

IC50 [2]: 1200 nM | Kp [4]: 0.15 | efflux ratio [5]: 17.2
SMILES: N#Cc1nc(N2CCOCC2)nc(N(Cc2ccc(F)cc2)CC2CCCNC2)n1 (centres undefined)
IC50 [3]: 181 nM

Source: ChEMBL document CHEMBL5226339, “Strategies for Structural Modification of Small Molecules to Improve Blood-Brain Barrier Penetration: A Recent Perspective” (J Med Chem, 2021)
